Counter-ions that a name gives are not always drawn.
Assays:
BIR2 domain of XIAP = BIR2 domain of XIAP (Homo sapiens (Human), UniProt P98170, C202A/C213G); test: TR-FRET assay for BIR2 (inhibition of binding of XIAP BIR2 domain to SMAC-derived Peptide A); conditions: 6x His-tagged BIR2 domain (aa 124-240 of XIAP) 10 nM, Peptide A 20 nM, TR-FRET; read-out: IC50 BIR2
BIR3 domain of XIAP = BIR3 domain of XIAP (Homo sapiens (Human), UniProt P98170); test: TR-FRET assay for BIR3 (inhibition of binding of XIAP BIR3 domain to SMAC-derived Peptide A); conditions: 6x His-tagged BIR3 domain (aa 241-356 of XIAP) 10 nM, Peptide A 20 nM, TR-FRET
Chain of BIR3 domain of XIAP (P98170 241-356 with tags or gaps limits assumed): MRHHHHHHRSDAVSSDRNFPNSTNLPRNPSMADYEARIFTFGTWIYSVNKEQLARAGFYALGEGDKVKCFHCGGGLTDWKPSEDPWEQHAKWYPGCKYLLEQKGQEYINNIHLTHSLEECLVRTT

Chain of BIR2 domain of XIAP (P98170 124-240 with tags or gaps C202A/C213G limits assumed): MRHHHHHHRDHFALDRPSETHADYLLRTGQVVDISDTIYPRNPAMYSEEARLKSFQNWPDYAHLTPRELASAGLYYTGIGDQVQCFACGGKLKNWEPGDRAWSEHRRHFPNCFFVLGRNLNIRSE

In the case of `CN[C@@H](C)C(=O)N[C@H]1CN(C(=O)CCCC(C)=O)c2ccccc2N(Cc2c(OC)ccc3cc(Br)ccc23)C1=O` [Example 27, (S)—N—((S)-1-((6-bromo-2-methoxynaphthalen-1-yl)methyl)-2-oxo-5-(5-oxohexanoyl)-2,3,4,5-tetrahydro-1H-benzo[b][1,4]diazepin-3-yl)-2-(methylamino)propanamide hydrochloride], the IC50 (BIR2 domain of XIAP) is reported as 33 nM.

In the case of `CN[C@@H](C)C(=O)N[C@H]1CN(C(=O)c2ccc(NC(=O)OCC3c4ccccc4-c4ccccc43)cc2)c2ccccc2N(Cc2c(OC)ccc3cc(C(=O)OC)ccc23)C1=O` [Example 55, 5-[(S)-5-[4-(9H-Fluoren-9-ylmethoxycarbonylamino)-benzoyl]-3-((S)-2-methylamino-propionylamino)-2-oxo-2,3,4,5-tetrahydro-benzo[b][1,4]diazepin-1-ylmethyl]-6-methoxy-naphthalene-2-carboxylic acid methyl ester hydrochloride], the IC50 (BIR2 domain of XIAP) is reported as 22 nM and the IC50 (BIR3 domain of XIAP) is reported as > 54800 nM.

Work on `CN[C@@H](C)C(=O)N[C@H]1CN(C(=O)CCNC(=O)OCC2c3ccccc3-c3ccccc32)c2ccccc2N(Cc2c(OC)ccc3cc(C(=O)OC)ccc23)C1=O` [Example 13r] yielded an IC50 (BIR2 domain of XIAP) of 17 nM and an IC50 (BIR3 domain of XIAP) of 46700 nM.

For `CN[C@@H](C)C(=O)N[C@H]1CN(C(=O)CCC(=O)O)c2ccccc2N(Cc2c(C)ccc3ccccc23)C1=O` [Example 16, 4-[(S)-3-((S)-2-Methylamino-propionylamino)-5-(2-methyl-naphthalen-1-ylmethyl)-4-oxo-2,3,4,5-tetrahydro-benzo[b][1,4]diazepin-1-yl]-4-oxo-butyric acid hydrochloride], the IC50 (BIR2 domain of XIAP) was 126 nM and the IC50 (BIR3 domain of XIAP) was > 54800 nM.

For `CN[C@@H](C)C(=O)N[C@H]1CN(C(=O)C2CCOCC2)c2cc(C(F)(F)F)ccc2N(Cc2c(C3CC3)cnc3ccccc23)C1=O` [Example 184, (S)-N-((S)-1-((3-cyclopropylquinolin-4-yl)methyl)-2-oxo-5-(tetrahydro-2H-pyran-4-carbonyl)-7-(trifluoromethyr)-2,3,4,5-tetrahydro-1H-benzo[b][1,4]diazepin-3-yl)-2-(methylamino)propanamide], the IC50 (BIR2 domain of XIAP) was 18.3 nM and the IC50 (BIR3 domain of XIAP) was 15200 nM.

With `CN[C@@H](C)C(=O)N[C@H]1CN(C(=O)CS(C)(=O)=O)c2ccc(C#N)cc2N(Cc2c(C)ccc3ccccc23)C1=O` [Example 172, (S)-N-((S)-8-cyano-1-((2-methylnaphthalen-1-yl)methyl)-5-(2-(methylsulfonyl)acetyl)-2-oxo-2,3,4,5-tetrahydro-1H-benzo[b][1,4]diazepin-3-yl)-2-(methylamino)propanamide hydrochloride] the IC50 (BIR2 domain of XIAP) was 94.7 nM and the IC50 (BIR3 domain of XIAP) was > 54800 nM.

For `CN[C@@H](C)C(=O)N[C@H]1CN(C(C)=O)c2cc(C#N)ccc2N(Cc2c(OC)ccc3c(C#N)cccc23)C1=O` [Example 182, (S)-N-((S)-5-acetyl-7-cyano-1-((5-cyano-2-methoxynaphthalen-1-yl)methyl)-2-oxo-2,3,4,5-tetrahydro-1H-benzo[b][1,4]diazepin-3-yl)-2-(methylamino)propanamide], the IC50 (BIR2 domain of XIAP) was 23.5 nM and the IC50 (BIR3 domain of XIAP) was 32400 nM.

`COc1ccc2cc(Br)ccc2c1CN1C(=O)[C@@H](NC(=O)[C@@H]2CCN2)CN(C(=O)c2ccc(C(C)=O)cc2)c2ccccc21` [Example 36, (S)—N—((S)-5-(4-acetylbenzoyl)-1-((6-bromo-2-methoxynaphthalen-1-yl)methyl)-2-oxo-2,3,4,5-tetrahydro-1H-benzo[b][1,4]diazepin-3-yl)azetidine-2-carboxamide hydrochloride] showed an IC50 (BIR2 domain of XIAP) of 5000 nM.

`CN[C@@H](C)C(=O)N[C@H]1CN(C(=O)c2ccccc2[C@H](C)O)c2ccccc2N(Cc2c(C)ccc3ccccc23)C1=O` (stereo in doubt) [Example 153, (25)-N-[(3S)-1-[2-[(1S)-1-hydroxyethyl]benzoyl]-5-[(2-methylnaphthalen-l-yl)methyl]-4-oxo-2,3-dihydro-1,5-benzodiazepin-3-yl]-2-(methylamino)propanamide;(2S)-N-[(3S)-1-[2-[(1R)-1-hydroxyethyl]benzoyl]-5-[(2-methylnaphthalen-1-yl)methyl]-4-oxo-2,3-dihydro-1,5-benzodiazepin-3-yl]-2-(methylamino)propanamide] showed an IC50 (BIR2 domain of XIAP) of 52.4 nM.

In the case of `CN[C@@H](C)C(=O)N[C@H]1CN(C(=O)c2ccc(C(O)C(F)(F)F)cc2)c2ccccc2N(Cc2c(OC)ccc3cc(Br)ccc23)C1=O` (mixture of isomers) [Example 32, (S)—N—{(S)-1-(6-Bromo-2-methoxy-naphthalen-1-ylmethyl)-2-oxo-5-[4-(2,2,2-trifluoro-1-hydroxy-ethyl)-benzoyl]-2,3,4,5-tetrahydro-1H-benzo[b][1,4]diazepin-3-yl}-2-methylamino-propionamide hydrochloride, mixture of diastereomers], the IC50 (BIR2 domain of XIAP) is reported as 25 nM.

In the case of `CN[C@@H](C)C(=O)N[C@H]1CN(C(=O)c2ccc(C(=O)O)cc2)c2ccccc2N(Cc2c(OC)ccc3cc(Br)ccc23)C1=O` [Example 29, 4-[(S)-5-(6-Bromo-2-methoxy-naphthalen-1-ylmethyl)-3-((S)-2-methylamino-propionylamino)-4-oxo-2,3,4,5-tetrahydro-benzo[b][1,4]diazepine-1-carbonyl]-benzoic acid hydrochloride], the IC50 (BIR2 domain of XIAP) is reported as 28 nM.

Compound `CN[C@@H](C)C(=O)N[C@H]1CN(C(=O)CC2CCCCC2)c2ccccc2N(Cc2c(OC)ccc3cc(Br)ccc23)C1=O` [Example 13i] has an IC50 (BIR2 domain of XIAP) of 78 nM.

Compound `CN[C@@H](C)C(=O)N[C@H]1CN(C(=O)COCCOCCOC)c2ccccc2N(Cc2c(C)ccc3ccccc23)C1=O` [Example 13, (S)—N—[(S)-5-{2-[2-(2-Methoxy-ethoxy)-ethoxy]-acetyl}-1-(2-methyl-naphthalen-1-ylmethyl)-2-oxo-2,3,4,5-tetrahydro-1H-benzo[b][1,4]diazepin-3-yl]-2-methylamino-propionamide hydrochloride] has an IC50 (BIR2 domain of XIAP) of 234 nM.

Compound `CN[C@@H](C)C(=O)N[C@H]1CN(C(=O)Cc2ccc(C(C)=O)cc2)c2ccccc2N(Cc2c(OC)ccc3cc(Br)ccc23)C1=O` [Example 13o] has an IC50 (BIR2 domain of XIAP) of 28 nM.

`CN[C@@H](C)C(=O)N[C@H]1CN(C(=O)c2ccc(C(=O)C(C)(C)C)cc2)c2ccccc2N(Cc2c(OC)ccc3cc(Br)ccc23)C1=O` [Example 13j] showed an IC50 (BIR2 domain of XIAP) of 37 nM.

In the case of `CN[C@@H](C)C(=O)N[C@H]1CN(C(=O)CCN)c2ccccc2N(Cc2c(OC)ccc3cc(C(=O)O)ccc23)C1=O` [Example 62, 5-(((S)-5-(3-aminopropanoyl)-3-((S)-2-(methylamino)propanamido)-2-oxo-2,3,4,5-tetrahydro-1H-benzo[b][1,4]diazepin-1-yl)methyl)-6-methoxy-2-naphthoic acid hydrochloride], the IC50 (BIR2 domain of XIAP) is reported as 17 nM.

For `CN[C@@H](C)C(=O)N[C@H]1CN(CCc2ccccc2)c2ccccc2N(Cc2cccc3ccccc23)C1=O` [Example 7, (S)-2-Methylamino-N—((S)-1-naphthalen-1-ylmethyl-2-oxo-5-phenethyl-2,3,4,5-tetrahydro-1H-benzo[b][1,4]diazepin-3-yl)-propionamide trifluoroacetate], the IC50 (BIR2 domain of XIAP) was 1550 nM.

Compound `CN[C@@H](C)C(=O)N[C@H]1CN(C(=O)CCCC(C)=O)c2ccccc2N(Cc2c(OC)ccc3cc(C(=O)OC)ccc23)C1=O` [Example 46, 6-Methoxy-5-[(S)-3 ((S)-2-methylamino-propionylamino)-2-oxo-5-(5-oxo-hexanoyl)-2,3,4,5-tetrahydro-benzo[b][1,4]diazepin-1-ylmethyl]-naphthalene-2-carboxylic acid methyl ester hydrochloride] has an IC50 (BIR2 domain of XIAP) of 62 nM.

`COc1ccc2cc(Br)ccc2c1CN1C(=O)[C@@H](NC(=O)[C@H](C)N)CN(C(=O)c2ccc(C(C)=O)cc2)c2ccccc21` [Example 39, (S)—N—((S)-5-(4-acetylbenzoyl)-1-((6-bromo-2-methoxynaphthalen-1-yl)methyl)-2-oxo-2,3,4,5-tetrahydro-1H-benzo[b][1,4]diazepin-3-yl)-2-aminopropanamide hydrochloride] gave an IC50 (BIR2 domain of XIAP) of 19 nM.

For `CN[C@H](C)C(=O)N[C@H]1CN(C(=O)c2ccc(C(C)=O)cc2)c2ccccc2N(Cc2c(C)ccc3ccccc23)C1=O` [Example 68, (R)—N—((S)-5-(4-acetylbenzoyl)-1-((2-methylnaphthalen-1-yl)methyl)-2-oxo-2,3,4,5-tetrahydro-1H-benzo[b][1,4]diazepin-3-yl)-2-(methylamino)propanamide hydrochloride], the IC50 (BIR3 domain of XIAP) was > 54800 nM.

`CN[C@@H](C)C(=O)N[C@H]1CN(C(=O)c2cccc(C(C)=O)c2)c2ccccc2N(Cc2c(OC)ccc3cc(Br)ccc23)C1=O` [Example 13l] gave an IC50 (BIR2 domain of XIAP) of 67 nM.

In the case of `CN[C@@H](C)C(=O)N[C@H]1CN(C(=O)CC2CCOCC2)c2ccccc2N(Cc2c(OC)ccc3c(Br)cccc23)C1=O` [Example 87, (S)—N—((S)-1-((5-bromo-2-methoxynaphthalen-1-yl)methyl)-2-oxo-5-(2-(tetrahydro-2H-pyran-4-yl)acetyl)-2,3,4,5-tetrahydro-1H-benzo[b][1,4]diazepin-3-yl)-2-(methylamino)propanamide hydrochloride], the IC50 (BIR3 domain of XIAP) is reported as 54400 nM.

With `CN[C@@H](C)C(=O)N[C@H]1CN(C(=O)c2ccc(C(=O)OC)cc2)c2ccccc2N(Cc2c(OC)ccc3cc(Br)ccc23)C1=O` [Example 28, 4-[(S)-5-(6-Bromo-2-methoxy-naphthalen-1-ylmethyl)-3-((S)-2-methylamino-propionylamino)-4-oxo-2,3,4,5-tetrahydro-benzo[b][1,4]diazepine-1-carbonyl]-benzoic acid methyl ester hydrochloride] the IC50 (BIR2 domain of XIAP) was 39 nM.

`CN[C@@H](C)C(=O)N[C@H]1CN(C(=O)CC23CC4CC(CC(C4)C2)C3)c2ccccc2N(Cc2c(OC)ccc3cc(Br)ccc23)C1=O` [Example 13q] was tested, and the IC50 (BIR2 domain of XIAP) was 92 nM.

`CN[C@@H](C)C(=O)N[C@H]1CN(C(=O)C23CC4CC(CC(C4)C2)C3)c2ccccc2N(Cc2c(OC)ccc3cc(Br)ccc23)C1=O` [Example 34, (S)—N—[(S)-5-(Adamantane-1-carbonyl)-1-(6-bromo-2-methoxy-naphthalen-1-ylmethyl)-2-oxo-2,3,4,5-tetrahydro-1H-benzo[b][1,4]diazepin-3-yl]-2-methylamino-propionamide hydrochloride] was tested, and the IC50 (BIR2 domain of XIAP) was 33 nM.

— patent US10053431B2, “Tetrahydro-benzodiazepinones” (priority 2013, dated 2018)
